52 molecules from the supplement of paper PMC7806825 can be followed below.

The data set has as its system McpC ligand-binding domain (Salmonella Typhimurium SL1344). The data set can be described thus: protein melting temperature (Tm) in presence of compound (degrees C); higher = more thermal stabilisation (possible ligand binding). As to conditions: compound stock concentration: 10-20 mM, 2 uL in 10 uL reaction.

With `NCCc1ccccc1` [b-Phenylethylamine], the protein melting temperature (Biolog plate: PM03B) came out at 44.6. With `CC(=O)N[C@H]1[C@H]([C@H](O)[C@H](O)CO)OC(O)(C(=O)O)C[C@@H]1O` (some centres undefined) [N-Acetyl-Neuraminic acid], where the note is “Biolog plate: PM02A”, the protein melting temperature was 44.4. Consider `Nc1ncnc2c1ncn2[C@@H]1O[C@H](CO)[C@@H](OP(=O)(O)O)[C@H]1O` [Adenosine 3`-Monophosphate], for which the protein melting temperature (Biolog plate: PM04A) is 44.2.

As to `CO[C@H]1O[C@H](CO)[C@H](O)[C@H](O)[C@H]1O` [a-Methyl-D-Galactoside], the protein melting temperature (Biolog plate: PM01) came out at 44.9. For the molecule `O=c1ccn([C@H]2C[C@H](O)[C@@H](CO)O2)c(=O)[nH]1` [2`-Deoxyuridine], where the note is “Biolog plate: PM05”, the protein melting temperature was 44.4.

On to `O=C(O)C[C@H](O)C(=O)O` [L-Malic acid], for which the protein melting temperature (Biolog plate: PM01) is 44.3. For `N[C@@H](Cc1ccc(O)cc1)C(=O)O` [L-Tyrosine], the protein melting temperature was 44.8 (Biolog plate: PM03B) and 43.9 (Biolog plate: PM05).

Consider `CCCCCCCC/C=C\CCCCCCCC(=O)OCCOCC(OCCO)C1OCC(OCCO)C1OCCO` (centres undefined) [Tween 80], for which the protein melting temperature (Biolog plate: PM01) was found to be 45.3 and the protein melting temperature (Biolog plate: PM05) was determined as 43.9.

As to `O=c1[nH]cnc2c1ncn2[C@@H]1O[C@H](CO)[C@@H](O)[C@H]1O` [Inosine], the protein melting temperature turned out to be 44.4 (Biolog plate: PM01), 44.6 (Biolog plate: PM03B) and 44.6 (Biolog plate: PM05).

`O=C(O)CC(Br)C(=O)O` (centres undefined) [Bromosuccinic acid]: where the note is “Biolog plate: PM01”, the protein melting temperature came to 44.8.

Take `CC(=O)N[C@@H]1C(O)O[C@H](CO)[C@@H](O)[C@@H]1O` (stereo partly drawn) [N-Acetyl-D-Mannosamine]: the protein melting temperature came out at 44.8 (Biolog plate: PM01) and 45.5 (Biolog plate: PM03B). `CC(C)C[C@H](N)C(=O)O` [L-Leucine]: the protein melting temperature (Biolog plate: PM02A) came to 44.3, the protein melting temperature (Biolog plate: PM03B) turned out to be 44.8 and the protein melting temperature (Biolog plate: PM05) was determined as 44.6.

Consider `O=S1(=O)CCCC1` [Tetramethylene Sulfone], for which the protein melting temperature (Biolog plate: PM04A) was determined as 44.3. On to `O=C(O)[C@@H](O)[C@@H](O)[C@H](O)[C@@H](O)C(=O)O` [D-Saccharic acid], for which the protein melting temperature (Biolog plate: PM01) amounted to 44.4. As to `C[C@H](N)C(=O)N[C@@H](CC(=O)O)C(=O)O` [Ala-Asp], under “Biolog plate: PM03B”, the protein melting temperature amounted to 45. Turning to `O=C(CO)[C@@H](O)[C@@H](O)[C@H](O)CO` [D-Tagatose], the protein melting temperature (Biolog plate: PM02A) is 44. Consider `C[C@H](N)C(=O)N[C@@H](Cc1cnc[nH]1)C(=O)O` [Ala-His], for which the protein melting temperature (Biolog plate: PM03B) was found to be 45.3. With `OC[C@H]1O[C@H](OC[C@H]2O[C@H](O[C@H]3[C@H](O)[C@@H](O)[C@@H](O)O[C@@H]3CO)[C@H](O)[C@@H](O)[C@@H]2O[C@H]2O[C@H](CO)[C@@H](O)[C@H](O)[C@H]2O)[C@H](O)[C@@H](O)[C@@H]1O` [Glycogen], the protein melting temperature (Biolog plate: PM02A) is 44.8. As to `Nc1nc2c(ncn2[C@@H]2O[C@H](CO)[C@@H](O)[C@H]2O)c(=O)[nH]1` [Guanosine], the protein melting temperature by setting is: (Biolog plate: PM03B) 45.5; (Biolog plate: PM05) 44.5.

For the molecule `OC[C@@H](O)[C@@H](O[C@H]1O[C@H](CO)[C@@H](O)[C@H](O)[C@H]1O)[C@H](O)[C@@H](O)CO` [Maltitol], under “Biolog plate: PM02A”, the protein melting temperature turned out to be 44.5. Turning to `OCC(O)C(O)C(O)CO` (centres undefined) [Adonitol], for the setting “Biolog plate: PM01”, the protein melting temperature was 44.8. As to `CC(C)(CO)[C@@H](O)C(=O)NCCC(=O)O` [D-Pantothenic acid], the protein melting temperature (Biolog plate: PM05) is 43.7. Same read-out and setting: the same measure for `C[N+](C)(C)CCO` [Choline]: 43.1. As to `NCCOP(=O)(O)O` [O-Phosphoryl-Ethanolamine], the protein melting temperature (Biolog plate: PM04A) was 43.9.

As for `Cc1ncc(CO)c(C=O)c1O` [Pyridoxal], under “Biolog plate: PM05”, the protein melting temperature was determined as 43.2.

Consider `O=P1(O)OP(=O)(O)OP(=O)(O)O1` [Trimetaphosphate], for which the protein melting temperature (Biolog plate: PM04A) is 44.7. Take `O=C1CC[C@@H](C(=O)O)O1` [a-Hydroxyglutaric acid-g-Lactone]: where the note is “Biolog plate: PM01”, the protein melting temperature is 45.3. Take `O=NO` [Nitrite]: the protein melting temperature (Biolog plate: PM03B) amounted to 46.

On to `C/C=C/C=C/C(=O)O` [Sorbic acid], for which the protein melting temperature (Biolog plate: PM02A) came to 44. For `OC[C@H]1O[C@@](CO)(O[C@H]2O[C@H](CO)[C@@H](O)[C@H](O)[C@H]2O)[C@@H](O[C@H]2O[C@H](CO)[C@@H](O)[C@H](O)[C@H]2O)[C@@H]1O` [D-Melezitose], for the setting “Biolog plate: PM02A”, the protein melting temperature amounted to 44.5.

Take `C[N+](C)(C)CC(O)CC(=O)[O-]` (racemic) [DL-Carnitine]: for the setting “Biolog plate: PM05”, the protein melting temperature stood at 43.7. Turning to `CC(=O)C(C)=O` [2,3-Butanedione], the protein melting temperature (Biolog plate: PM02A) is 43.9.

In the case of `O=c1[nH]cnc2nc[nH]c12` [Hypoxanthine], the protein melting temperature (Biolog plate: PM05) was 44. As to `O=c1[nH]cnc2c1ncn2[C@H]1C[C@H](O)[C@@H](CO)O1` [2`-Deoxyinosine], the protein melting temperature (Biolog plate: PM05) came out at 43.9.

For the molecule `NCCCCN` [Putrescine], the protein melting temperature was found to be 43.7 (Biolog plate: PM02A), 44 (Biolog plate: PM03B) and 44.1 (Biolog plate: PM05). With `C[C@H](O)[C@@H](O)[C@@H](O)[C@H](O)C=O` [L-Fucose], where the note is “Biolog plate: PM01”, the protein melting temperature stood at 44.7. Take `NC(=O)c1cccnc1` [Nicotinamide]: the protein melting temperature (Biolog plate: PM05) worked out at 43.7. `OC[C@@H]1OC(O)[C@@H](O)[C@H](O)[C@H]1O` (stereo partly drawn) [L-Glucose]: the protein melting temperature (Biolog plate: PM02A) is 44.4. Regarding `O=c1cc[nH]c(=O)[nH]1` [Uracil], the protein melting temperature runs as follows: (Biolog plate: PM03B) 45.7; (Biolog plate: PM05) 42.7. With `OC[C@@H](O)[C@@H](O)[C@H](O)[C@@H](O)CO` [D-Sorbitol], the protein melting temperature (Biolog plate: PM01) worked out at 45. Regarding `O=C(O)CCC(=O)O` [Succinic acid], under “Biolog plate: PM01”, the protein melting temperature was determined as 44.5.

`O=C(O)/C=C/C(=O)O` [Fumaric acid]: the protein melting temperature (Biolog plate: PM01) is 44.6. Regarding `O=c1ccn([C@@H]2O[C@H](CO)[C@@H](OP(=O)(O)O)[C@H]2O)c(=O)[nH]1` [Uridine 3`-Monophosphate], the protein melting temperature (Biolog plate: PM04A) came to 43.5. On to `O=C(O)[C@@H]1C[C@@H](O)CN1` [Hydroxy-L-Proline], for which the protein melting temperature reads like this: (Biolog plate: PM02A) 44.2; (Biolog plate: PM05) 43.8. For `CCC(=O)C(=O)O` [a-Ketobutyric acid], the protein melting temperature was found to be 43.9 (Biolog plate: PM01) and 44 (Biolog plate: PM05).

As for `Nc1cc[nH]c(=O)n1` [Cytosine], the protein melting temperature reads like this: (Biolog plate: PM03B) 45.2; (Biolog plate: PM05) 44.3.

Consider `N=C(N)NCCC[C@H](N)C(=O)O` [L-Arginine], for which the protein melting temperature reads like this: (Biolog plate: PM02A) 44.2; (Biolog plate: PM03B) 45.4; (Biolog plate: PM05) 44.6. For the molecule `Nc1ncnc2c1ncn2[C@@H]1O[C@@H]2COP(=O)(O)O[C@H]2[C@H]1O` [Adenosine 3`,5`-Cyclic Monophosphate], the protein melting temperature (Biolog plate: PM04A) is 43.9 and the protein melting temperature (Biolog plate: PM05) amounted to 44.4. Regarding `NCC(=O)CCC(=O)O` [d-Amino-levulinic acid], the protein melting temperature (Biolog plate: PM05) was 43.8. In the case of `O=C(O)[C@]1(O)C[C@@H](O)[C@@H](O)[C@H](O)C1` [Quinic acid], the protein melting temperature (Biolog plate: PM02A) came out at 44.2.

Regarding `O=C1O[C@H](CO)[C@@H](O)[C@H]1O` [D-Ribono-1,4-Lactone], the protein melting temperature (Biolog plate: PM02A) was 44.4. With `CC(=O)N(O)CCCCCNC(=O)CCC(=O)N(O)CCCCCNC(=O)CCC(=O)N(O)CCCCCN` [Deferoxamine], the protein melting temperature (Biolog plate: PM05) stood at 44.4.
